Measured values: patent publication US7662767B2, “Polynucleotide intercalator interceptors and inhibitors” (Materials Evolution and Development USA, Inc., priority 2000, dated 2010)
“Also recorded” adds a separate entry of the source.

Experiments:
[1] = Absorbance binding spectra of doxorubicin titrated with caffeine or chlorophyllin; details: 10 μM doxorubicin
[2] = Optical absorbance titration of chlorophyllin with acridine orange; assay type: binding; details: AO:chlorophyllin ratio between 0.1 and 30
From the text: The invention is not limited to the use of xanthines as interceptor molecules. For example, chlorophyllin and porphyrins may be used as a binding agent to intercalator molecules. FIG. 2-3 shoes the optical absorbance spectra titrating cholorphyllin with increasing concentraitons of acridine orange. The selected spectra denoting important transitions within the titration series are denoted by the bold lines. At AO:chlorophyllin ratio between 0.1 and 30, prevalent peaks occur at λabs of 415 nm for chlorophyllin, 475 nm, and 492 nm. These later peaks correspond to the prevalent absorbance peaks found at concentrations of AO at 10 μM and higher concentrations. […] Thus, other compounds may be used as interceptors such as, but not limited to porphyrins, purines, pyrimidines, polynucleotides and uric acid.

[3] = system: chicken erythrocyte nuclear chromatin; experiment: Blocking of acridine orange intercalation into chicken erythrocyte nuclear chromatin, fluorescence microscopy; set-up: key: 0: no blocking effect; 1: slight blocking; 2: moderate blocking; 3: almost total blocking (very slight green fluorescence detectable); 4: complete blockage (no green fluorescence detectable); details: 10 μM AO
Description: Microscope slides coated with chicken erythrocyte were stained with 10 μM AO at three separate areas on the microscope slide as described above. Slides were exposed to […] different xanthies at four different molar ratios for three different periods of time. The xanthines, theophylline, caffeine, 1,3,7,9-tetramethyl uric acid, and aminophylline, were prepared with 10 μM AO at molar ratios of 50:1, 500:1, 2500:1, 5000:1 xanthine to AO in distilled water. Microscope slides coated with chicken erythrocytes were exposed to a mixture of xanthine/AO at each molar ratio for periods of 10 min, 1 min, and 10 seconds under static (non-agitated) conditions. […] Following exposure to the xanthine/AO or to the DNA/AO solutions, the slides were rinsed in distilled water, allowed to dry at room temperature, examined by fluorescence microscopy, and the color of the nuclei recorded. Results were recorded as follows: 0=no blocking effect; 1=slight blocking; 2=moderate blocking; 3=almost total blocking (very slight green fluorescence detectable); 4=complete blockage (no green fluorescence detectable).
In the implementation shown in Table 4-2, the relative intensity of the green fluorescent color ([…]) utilizing a red blocking filter (≧600 nm) was used as the indicator of the intensity of staining. The molar ratio is expressed as the ratio of xanthine concentration to 10 μM AO. Results were recorded as follows: 0=no blocking effect; 1=slight blocking; 2=moderate blocking; 3=almost total blocking (very slight green fluorescence detectable); 4=complete blockage (no green fluorescence detectable). *Kassoc values for the xanthines are taken from Table 2-1 and the Kassoc values for DNA were taken from Table 3-2.

[4] = Optical titration (absorbance) of acridine orange with xanthines/purines, Kassoc from delta absorbance; assay type: binding; details: for Kassoc ± S.E.: binding affinity between acridine orange (10 μM) and compound, 5 mM HEPES pH 7.0, 25±1° C., 0 = no measurable association detected
Description: A red spectral shift in the optical adsorption maximum of AO upon the addition of a particular xanthine, indicates the possibility of a complex being formed between the two compounds. Spectral shifts can be measured by optical titrations.
Optical titrations (serial additions of various xanthines to a solution of AO) were performed on a Beckman DU-600 Scanning Spectrophotometer (Beckman Instrument Co., New York, N.Y.) using a 3 mL (1-cm light path) quartz cuvette containing 2.0 mL of a […]. The DU600 Spectrophotometer was blanked with 2 mL of a pH 7.0 buffered 5 mM HEPES solution over the full range of wavelengths to be scanned prior to sample analysis. This reduced the need to subtract the background absorbance from the HEPES buffer. Optical absorbance scans were performed over a wavelength range preferably from 400 nm to 550 nm. […] The 10 μM AO solution was scanned before the start of each titration series to quantitatively monitor any changes in the absorbance spectrum. Optical absorbance experiments were performed using aliquots varying in volume from 1:L to 20:L taken from prepared xanthine stock solutions (5 mM to 50 mM) and titrated into the cuvette containing 2.0 mL of the 10 μM AO solution. The solution in the cuvette was then thoroughly mixed by 10 seconds of shaking before scanning. All titrations were performed at room temperature (25±1° C.). The absorbance spectra were measured in 1 nm intervals and stored in digital form. Digitized scan data was converted to a Lotus Spreadsheet file (*.wk1) using a conversion program supplied by the manufacturer (Beckman Instruments Inc.) then imported into a Microsoft Excel 97™ Workbook file (*.xls) and saved in this format for further analysis. Spectral data for each titration was combined and expressed in graphic form (Excel™) (X-axis=wavelength in nm; Y-axis=optical absorbance) for each xanthine titrated with AO. […] Adjusted absorption values were plotted and compared to spectra from non-complexed AO. This allowed for the visualization of an expected spectral shift that occurs when AO forms a complex with a xanthine.
The association constant, Kassoc, may be used to analyze the binding ability of modified xanthines to DNA intercalators. The association constant may be calculated based upon a differential shift in the absorbance spectrum. When the presence of the xanthine caused a spectral shift, a difference absorbance plot or delta plot was obtained. Delta plots were constructed by subtracting the adjusted absorption spectrum of AO in the presence of the xanthine from the initial spectrum of AO alone at each wavelength and for each aliquot of the titration. This procedure allowed for the creation of difference absorption values or delta absorption values. Delta absorption values obtained in this manner (Y-axis=delta absorption) were plotted against wavelength in nm (X-axis). The appearance of a single isobestic point was indicative of only two species present in solution, AO, and an AO complex. Graphic representation allowed for the selection of a wavelength with the maximum sensitivity for determining the association constant. This wavelength was characterized by the greatest positive response in delta absorbance values observed upon addition of each aliquot of xanthine to the AO solution. The AO-xanthine association or binding constant was determined by the following equilibrium expression: I+X≡IX EQUATION 1: […]
Where I represents the intercalator (AO), X represents the interceptor molecule (xanthine), and IX represents the AO-xanthine complex, respectively.

[5] = system: chicken erythrocyte nuclear chromatin; experiment: Removal of acridine orange from stained chicken erythrocyte nuclear chromatin by xanthine rinse, fluorescence microscopy; details: for Nuclear color, Stain: before xanthine rinse; for Nuclear color, Re-stain: re-stained after xanthine rinse; for Nuclear color, After Rinse: xanthine rinse 50 mM, 1 hour, static
Description: Experiments were conducted to determine whether xanthines with known binding affinities to AO could compete with nuclear DNA for binding to AO and, therefore, be able to remove AO from its intercalation position within nuclear chromatin. Fluorescence microscopy was used to observe the fluorescent color produced by the AO-DNA complex following the staining of chicken erythrocyte nuclear chromatin with AO at both 5 μM and 5 mM.
Microscope slides smeared with chicken erythrocytes were stained with either 5 μM or 5 mM AO for a period of 30 minutes followed by three 10 second rinses in distilled water before drying at room temperature. Slides were then examined by fluorescence microscopy using a, Zeiss Model 63 Microscope with a xenon source fluorescent emitter. In some instances, a blocking filter was used to filter out fluorescence emission in the red and higher wavelengths. Photomicrographs were taken with Kodak Gold 35 mm ASA 1600 speed film, developed and color prints made. Comparative photomicrographs were taken at the same magnification and at the same exposure time. Selected photomicrographs were digitally scanned (Hewitt-Packard, Model 4L Scanner, Palo Alto, Calif.) and stored on 100 MB ZIP cartridges.
Slides were again examined by fluorescence microscopy and fluorescence color of the nuclei recorded. Slides were again stained with 5 mM AO then re-examined by fluorescence microscopy and fluorescence color of the nuclei recorded.
In the example shown in Table 4-3, the chicken erythrocytes were smeared and dried on a microscope slide prior to exposure to the AO solution for 30 minutes followed by water rinses to remove excess AO. Following drying, each slide was observed under fluorescence microscopy then placed in one of the xanthine solutions (50 ml volume) for 1 hour under static conditions, rinsed with water, then dried prior to being observed by fluorescence microscopy without a red blocking filter. Finally, each slide was restained following the initial staining procedures and again observed by fluorescence microscopy. Kassoc values are taken from Table 2-1 and are expressed in M^−1.

[6] = system: Drosophila salivary gland polytene chromosome; experiment: Removal of DNA binding stains from polytene chromosome bands by xanthine wash; set-up: species or system Drosophila melagaster; details: for Re-staining following Xanthine Exposure / Staining before Xanthine Exposure: 1 mM stain, 30 minutes; for Degree of Stain Removal, Exposure to AM (100 mM) / Degree of Stain Removal, Exposure to CAF (100 mM): 15 minute wash, static
Description: In another implementation, giant polytene chromosomes were prepared by the squash technique from the salivary gland of Drosophila melagaster larva The salivary gland was placed on a microscope slide, squashed with a glass cover slide, fixed with acidic acid, rinsed with distilled water, and allowed to dry (kindly provided by Linda Chadwell, UTHSCSA-IBT). Three known DNA intercalators, ethidium bromide (98% purity, Aldrich Chemical Company, Milwaukee, Wis.), doxorubicin (98%, Sigma Chemnical Company, St. Louis, Mo.), and acridine orange plus the minor groove binding DNA stain Hoechst 33258 (98%, ACROS Chemical Company, NJ) were prepared in distilled water at a concentration of 1 mM (for chemical structures see FIG. 4-1, where acridine orange (3,6-bis [dimethylamino] acridine) is shown in Panel A, ethidium bromide is shown in Panel B, doxorubicin is shown in Panel C, Hoechst 33258 is shown in Panel D). The slides with prepared chromosomes were immersed in these stains for a period of 30 minutes, rinsed with distilled water, and dried at room temperature. Fluorescence microscopic analysis was conducted at λex 360 nm and photomicrographs were conducted on a Zeiss Model 63 Microscope with a xenon source fluorescent emitter. Photomicrographs were taken using Kodak Gold 35 mm ASA 1600 speed film noting the position of one individual chromosome on the slide. The stained slides were then subjected to 100 mM caffeine or 100 mM aminophylline under static conditions for a period of 15 minutes, rinsed with distilled water, then allowed to dry at room temperature. The presence of the same individual unstained chromosome in the field was confirmed by phase contrast microscopy. The chromosome was viewed again under fluorescence microscopy at […], and color recorded. Slides were re-stained by immersion in the 1 mM stain for a period of 30 minutes, rinsed with distilled water, and dried at room temperature, and the same individual chromosome was examined by fluorescence microscopy and the fluorescence color recorded.
FIG. 4-3 depicts three photomicrographs of the same Drosophila polytene chromosome: after staining with the DNA minor groove binder Hoechst 33258 dye (Panel A), after rinsing with CAF for 15 minutes (Panel B), and a phase contrast verification of the presence of the chromosome after the CAF rinse (Panel C). Table 4-4 summarizes the results from the experiments using caffeine (CAF) and aminophylline (AM) to remove the following DNA intercalators: doxorubicin, ethidium bromide, acridine orange, and the DNA minor groove binder Hoechst 33258 from their binding sites within polytene chromosomes. […] With all DNA intercalators, the staining of chromosome bands was intense before the xanthine rinses and was again intense following re-staining.

chlorophyllin
binding to doxorubicin [1]: doxorubicin can be bound to chlorophyllin | complexation with acridine orange [2]: complexes with acridine orange

Cn1c(=O)c2c(n(C)c1=O)n(C)c(=O)n2C [1,3,7,9-tetramethyl-8-oxy xanthine]
blocking of AO intercalation ([3]; Xanthine/AO molar ratio 5000:1, exposure 10 min): 2 | blocking of AO intercalation ([3]; molar ratio 50:1, exposure 10 sec): 0 | blocking of AO intercalation ([3]; molar ratio 50:1, exposure 1 min): 0 | blocking of AO intercalation ([3]; molar ratio 50:1, exposure 10 min): 0 | blocking of AO intercalation ([3]; molar ratio 500:1, exposure 10 sec): 0 | blocking of AO intercalation ([3]; molar ratio 500:1, exposure 1 min): 0 | blocking of AO intercalation ([3]; molar ratio 500:1, exposure 10 min): 0 | blocking of AO intercalation ([3]; molar ratio 2500:1, exposure 10 sec): 0 | blocking of AO intercalation ([3]; molar ratio 2500:1, exposure 1 min): 1 | blocking of AO intercalation ([3]; molar ratio 2500:1, exposure 10 min): 1 | blocking of AO intercalation ([3]; molar ratio 5000:1, exposure 10 sec): 2 | blocking of AO intercalation ([3]; molar ratio 5000:1, exposure 1 min): 2 | Kassoc ([4]; Table 2-2, Kassoc value with acridine orange (this report)): 552 M⁻¹ | Kassoc ([4]; Table 4-2, in parentheses under compound, taken from Table 2-1): (552) M^−1 | Kassoc ([4]; Table 4-3, taken from Table 2-1): 552 M⁻¹ | Kassoc ± S.E. [4]: 551.5 ± 9.0 M⁻¹ | Kassoc ± S.E. ([4]; listed as 1,3,7,9-tetramethyl uric acid): 552 M⁻¹ | effect of xanthine rinse on fluorescence of AO stained nuclear chromatin ([5]; 50 mM xanthine rinse): removal of most, if not all, green and red color | Nuclear color, Stain ([5]; AO [5 μM] 30 minutes): Green | Nuclear color, Re-stain ([5]; AO [5 μM]): Green | Nuclear color, After Rinse ([5]; AO [5 μM]): None | Nuclear color, Stain ([5]; AO [5 mM] 30 minutes): Red | Nuclear color, Re-stain ([5]; AO [5 mM]): Red | Nuclear color, After Rinse ([5]; AO [5 mM]): None

CN1CCN(c2ccc3[nH]c(-c4ccc5[nH]c(-c6ccc(O)cc6)nc5c4)nc3c2)CC1 [Hoechst 33258]
Re-staining following Xanthine Exposure [6]: Complete | Staining before Xanthine Exposure [6]: Banding | Degree of Stain Removal, Exposure to AM (100 mM) [6]: apparently complete removal | Degree of Stain Removal, Exposure to CAF (100 mM) [6]: apparently complete removal

COc1cccc2c1C(=O)c1c(O)c3c(c(O)c1C2=O)C[C@@](O)(C(=O)CO)C[C@@H]3O[C@H]1C[C@H](N)[C@H](O)[C@H](C)O1 [Doxorubicin, doxorubicin]
Re-staining following Xanthine Exposure [6]: Complete | Staining before Xanthine Exposure [6]: Banding | Degree of Stain Removal, Exposure to AM (100 mM) [6]: Moderate | Degree of Stain Removal, Exposure to CAF (100 mM) [6]: completely removed; also recorded: Complete | Degree of Stain Removal, Exposure to AM (100 mM) ([6]; listed as doxorubicin): only moderately removed
